Test results published in US20260274832A1, “COMPOUNDS AND THEIR USE IN TREATING CANCER” (ASTRAZENECA AB, priority 2023, published 2026).

Tests used:
[1] = biological target: T1, AR (AR-full length) in LNCaP cells (Homo sapiens, UniProt P10275, T878A); assay: LNCaP Androgen Receptor Imaging Assay (immunofluorescence of endogenous nuclear AR); format: cell-based; conditions: 24 h incubation; for DC50: concentration giving 50% of maximum degradation of AR per curve fit, single experiment or average of two or more; for Dmax: LNCaP; for Dmax / LNCaP AR Degradation Dmax: maximum degradation observed, normalized as % of positive control (prior art AR PROTAC at 3 μM)
T1 construct: the prostate cancer cell line LNCaP (expressing AR-full length); endogenous in cells; host or cells: LNCaP
T1 sequence (P10275 whole entry T878A): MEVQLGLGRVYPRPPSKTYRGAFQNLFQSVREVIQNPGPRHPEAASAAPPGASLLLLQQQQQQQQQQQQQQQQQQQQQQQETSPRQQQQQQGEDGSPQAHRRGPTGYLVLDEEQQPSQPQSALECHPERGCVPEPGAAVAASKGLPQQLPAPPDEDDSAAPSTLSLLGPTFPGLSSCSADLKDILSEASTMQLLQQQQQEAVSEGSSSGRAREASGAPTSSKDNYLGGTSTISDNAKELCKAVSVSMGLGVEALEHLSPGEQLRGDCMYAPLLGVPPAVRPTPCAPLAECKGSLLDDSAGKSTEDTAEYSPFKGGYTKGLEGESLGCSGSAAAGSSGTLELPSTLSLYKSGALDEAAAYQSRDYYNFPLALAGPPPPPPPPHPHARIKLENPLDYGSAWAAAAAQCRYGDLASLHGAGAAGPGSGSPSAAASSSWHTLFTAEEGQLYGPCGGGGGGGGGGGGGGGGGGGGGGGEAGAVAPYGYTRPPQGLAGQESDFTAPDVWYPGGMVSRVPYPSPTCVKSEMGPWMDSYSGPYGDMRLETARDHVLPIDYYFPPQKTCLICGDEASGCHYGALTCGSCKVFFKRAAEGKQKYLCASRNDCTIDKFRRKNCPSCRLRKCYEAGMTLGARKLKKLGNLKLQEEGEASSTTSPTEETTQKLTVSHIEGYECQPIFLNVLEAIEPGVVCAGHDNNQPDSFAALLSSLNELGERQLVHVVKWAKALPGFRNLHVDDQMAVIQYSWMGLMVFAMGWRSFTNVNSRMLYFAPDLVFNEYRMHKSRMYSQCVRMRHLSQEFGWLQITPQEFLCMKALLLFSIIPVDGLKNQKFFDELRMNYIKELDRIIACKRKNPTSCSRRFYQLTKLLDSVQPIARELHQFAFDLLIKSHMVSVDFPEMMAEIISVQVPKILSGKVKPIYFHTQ
T1 sequence (Q96SW2 whole entry partner): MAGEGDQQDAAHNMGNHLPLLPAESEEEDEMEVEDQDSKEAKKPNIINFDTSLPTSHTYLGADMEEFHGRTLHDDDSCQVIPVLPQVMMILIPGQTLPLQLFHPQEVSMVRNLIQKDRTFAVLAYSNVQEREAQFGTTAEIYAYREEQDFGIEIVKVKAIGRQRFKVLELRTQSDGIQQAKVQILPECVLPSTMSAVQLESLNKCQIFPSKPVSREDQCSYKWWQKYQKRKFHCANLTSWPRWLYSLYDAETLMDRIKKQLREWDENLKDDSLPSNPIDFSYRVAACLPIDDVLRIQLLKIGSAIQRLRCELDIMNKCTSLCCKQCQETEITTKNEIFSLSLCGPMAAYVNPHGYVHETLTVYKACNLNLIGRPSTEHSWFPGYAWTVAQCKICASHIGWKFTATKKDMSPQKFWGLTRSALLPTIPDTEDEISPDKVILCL
Summary of the method: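 Endogenous nuclear AR level was imaged by immunofluorescence after 24 h compound exposure (12-point dose response, 0.3% DMSO, 37° C./5% CO2) in LNCaP cells. Data were expressed as % of a 3 μM prior-art AR PROTAC control and fitted (bell fit where a hook appeared) to give DC50 and maximum degradation Dmax.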

[2] = biological target: T2, AR (L702H) in LNCaP cells (Homo sapiens, UniProt P10275, L702H/T878A); assay: LNCaP Androgen Receptor L702H Imaging Assay (LNCaP cells engineered by CRISPR/Cas9); format: cell-based; conditions: LNCaP cells with AR L702H mutation, 24 h incubation; for DC50: concentration giving 50% of maximum degradation of AR (L702H) per curve fit; for Dmax: LNCaP; for Dmax / LNCaP AR (L702H) Degradation Dmax: maximum degradation observed, normalized as % of positive control
T2 construct: engineered to introduce the mutation L702H into the AR gene using CRISPR/Cas9; endogenous in cells; host or cells: LNCaP cells edited by CRISPR/Cas9 at the AR gene
T2 sequence (P10275 whole entry L702H/T878A): as the sequence (P10275 whole entry T878A) above, with L702H counted along it
T2 sequence (Q96SW2 whole entry partner): as the sequence (Q96SW2 whole entry partner) above
Summary of the method: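 AR (L702H) degradation, expressed as DC50 and Dmax from curve fits normalized to a positive degrader control, was measured by high-content imaging of anti-AR immunofluorescence. The engineered LNCaP line was dosed over 12 concentrations for 24 h, 0.3% DMSO final, before PFA fixation.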

Structure (SMILES)	DC50 [1] [nM]	Dmax [1] [%]	DC50 [2] [nM]	Dmax [2] [%]	LNCaP AR Degradation Dmax [1] [%]	LNCaP AR (L702H) Degradation Dmax [2] [%]
N#Cc1n[nH]c2c(N3CCC[C@H](c4ccc(N5CCC(CN6CCC(n7ccc8c(N9CCC(=O)NC9=O)cccc87)CC6)CC5)cc4)C3)ccc(Cl)c12 [Example 25, 4-Chloro-7-[(3R)-3-{4-[4-({4-[4-(2,4-dioxo-1,3-diazinan-1-yl)-1H-indol-1-yl]piperidin-1-yl}methyl)piperidin-1-yl]phenyl}piperidin-1-yl]-1H-indazole-3-carbonitrile]	6	92	4	104		
N#Cc1n[nH]c2c(N3CCC(NC(=O)c4ccc(N5CCC(CN6CCC(n7ccc8c(N9CCC(=O)NC9=O)cccc87)CC6)CC5)cc4F)CC3)ccc(Cl)c12 [Example 152, N-[1-(4-Chloro-3-cyano-1H-indazol-7-yl)piperidin-4-yl]-4-[4-({4-[4-(2,4-dioxo-1,3-diazinan-1-yl)-1H-indol-1-yl]piperidin-1-yl}methyl)piperidin-1-yl]-2-fluorobenzamide]	2	105	2	108		
Cc1ccc(N2CCC(c3ccc(OCCCCN4CCN(c5ccc6c(c5)CN(C5CCC(=O)NC5=O)C6=O)CC4)cc3)C2)c2[nH]cc(C#N)c12 (single isomer, unassigned) [Example 150, 7-{(3S*)-3-[4-(4-{4-[2-(2,6-Dioxopiperidin-3-yl)-1-oxo-2,3-dihydro-1H-isoindol-5-yl]piperazin-1-yl}butoxy)phenyl]pyrrolidin-1-yl}-4-methyl-1H-indole-3-carbonitrile]	14	82	893	50		
N#Cc1c[nH]c2c(N3CCC(NC(=O)c4ccc(N5CCC(CN6CCC(n7ccc8c(N9CCC(=O)NC9=O)cccc87)CC6)CC5)cn4)CC3)ccc(Cl)c12 [Example 167, N-[1-(4-Chloro-3-cyano-1H-indol-7-yl)piperidin-4-yl]-5-[4-({4-[4-(2,4-dioxo-1,3-diazinan-1-yl)-1H-indol-1-yl]piperidin-1-yl}methyl)piperidin-1-yl]pyridine-2-carboxamide]	1	101	2	100		
COc1nc(N2CCN(CC3CCN(c4ccc(C5CCN(c6ccc(C)c7c(C#N)c[nH]c67)CC5)cc4)CC3)CC2)cc2c1C(=O)N(C1CCC(=O)NC1=O)C2 (stereo not shown) [Example 30, 7-(4-{4-[4-({4-[2-(2,6-Dioxopiperidin-3-yl)-4-methoxy-3-oxo-2,3-dihydro-1H-pyrrolo[3,4-c]pyridin-6-yl]piperazin-1-yl}methyl)piperidin-1-yl]phenyl}piperidin-1-yl)-4-methyl-1H-indole-3-carbonitrile]	25	98	83	83		
N#Cc1c[nH]c2c(N3CCC(c4ccc(OCCCCN5CCN(c6ccc7c(c6)CN(C6CCC(=O)NC6=O)C7=O)CC5)cc4)CC3)ccc(F)c12 (stereo not shown) [Example 44, 7-{4-[4-(4-{4-[2-(2,6-Dioxopiperidin-3-yl)-1-oxo-2,3-dihydro-1H-isoindol-5-yl]piperazin-1-yl}butoxy)phenyl]piperidin-1-yl}-4-fluoro-1H-indole-3-carbonitrile]	4	95	2	96		
COc1cc(N2CCN(CCCCOc3ccc(C4CCN(c5ccc(C)c6c(C#N)n[nH]c56)CC4)cc3)CC2)cc2c1C(=O)N(C1CCC(=O)NC1=O)C2 (stereo not shown) [Example 148, 7-{4-[4-(4-{4-[2-(2,6-Dioxopiperidin-3-yl)-7-methoxy-1-oxo-2,3-dihydro-1H-isoindol-5-yl]piperazin-1-yl}butoxy)phenyl]piperidin-1-yl}-4-methyl-1H-indazole-3-carbonitrile]	20	99	52	89		

Continued, values first:

DC50 [1] [nM]	Dmax [1] [%]	DC50 [2] [nM]	Dmax [2] [%]	LNCaP AR Degradation Dmax [1] [%]	LNCaP AR (L702H) Degradation Dmax [2] [%]	Structure (SMILES)
15	94	14	99			COc1nc(N2CCN(C3CCN(c4ccc(C5CCN(c6ccc(Cl)c7c(C#N)c[nH]c67)CC5)cc4)CC3)CC2)cc2c1C(=O)N(C1CCC(=O)NC1=O)C2 (stereo not shown) [Example 86, 4-Chloro-7-{4-[4-(4-{4-[2-(2,6-dioxopiperidin-3-yl)-4-methoxy-3-oxo-2,3-dihydro-1H-pyrrolo[3,4-c]pyridin-6-yl]piperazin-1-yl}piperidin-1-yl)phenyl]piperidin-1-yl}-1H-indole-3-carbonitrile]
9	98	14	101			COc1cc(N2CCN(CC3CCN(c4ccc(C5CCN(c6ccc(Cl)c7c(C#N)c[nH]c67)CC5)cc4)CC3)CC2)cc2c1C(=O)N(C1CCC(=O)NC1=O)C2 (stereo not shown) [Example 7, 4-Chloro-7-(4-{4-[4-({4-[2-(2,6-dioxopiperidin-3-yl)-7-methoxy-1-oxo-2,3-dihydro-1H-isoindol-5-yl]piperazin-1-yl}methyl)piperidin-1-yl]phenyl}piperidin-1-yl)-1H-indole-3-carbonitrile]
5	96	36	85			Cc1ccc(N2CCC(NC(=O)c3ccc(N4CCC(CN5CCN(c6cc7c(cc6F)C(=O)N(C6CCC(=O)NC6=O)C7=O)CC5)CC4)cn3)CC2)c2[nH]cc(C#N)c12 (stereo not shown) [Example 171, N-[1-(3-Cyano-4-methyl-1H-indol-7-yl)piperidin-4-yl]-5-[4-({4-[2-(2,6-dioxopiperidin-3-yl)-6-fluoro-1,3-dioxo-2,3-dihydro-1H-isoindol-5-yl]piperazin-1-yl}methyl)piperidin-1-yl]pyridine-2-carboxamide]
13	96	21	99			COc1nc(N2CCN(CCCC3CCN(c4ccc(C5CCN(c6ccc(Cl)c7c(C#N)c[nH]c67)CC5)cc4)CC3)CC2)cc2c1C(=O)N(C1CCC(=O)NC1=O)C2 (stereo not shown) [Example 88, 4-Chloro-7-(4-{4-[4-(3-{4-[2-(2,6-dioxopiperidin-3-yl)-4-methoxy-3-oxo-2,3-dihydro-1H-pyrrolo[3,4-c]pyridin-6-yl]piperazin-1-yl}propyl)piperidin-1-yl]phenyl}piperidin-1-yl)-1H-indole-3-carbonitrile]
7	93	13	90			Cn1c(=O)n(C2CCC(=O)NC2=O)c2cccc(CN3CCN(CC4CCN(c5ccc([C@@H]6CCCN(c7ccc(Cl)c8c(C#N)c[nH]c78)C6)cc5)CC4)CC3)c21 (stereo partly drawn) [Example 73, 4-Chloro-7-[(3S)-3-(4-{4-[(4-{[1-(2,6-dioxopiperidin-3-yl)-3-methyl-2-oxo-2,3-dihydro-1H-benzimidazol-4-yl]methyl}piperazin-1-yl)methyl]piperidin-1-yl}phenyl)piperidin-1-yl]-1H-indole-3-carbonitrile]
62	93	52	97			N#Cc1c[nH]c2c(N3CCC(c4ccc(N5CCC(CN6CCN(c7cc8c(cc7F)C(=O)N(C7CCC(=O)NC7=O)C8=O)CC6)CC5)cc4)CC3)ccc(F)c12 (stereo not shown) [Example 52, 7-(4-{4-[4-({4-[2-(2,6-Dioxopiperidin-3-yl)-6-fluoro-1,3-dioxo-2,3-dihydro-1H-isoindol-5-yl]piperazin-1-yl}methyl)piperidin-1-yl]phenyl}piperidin-1-yl)-4-fluoro-1H-indole-3-carbonitrile]
4		9		95	95	N#Cc1c[nH]c2c(N3CCCC(NC(=O)c4ccc(N5CCC(CN6CCN(c7ccc8c(c7)CN(C7CCC(=O)NC7=O)C8=O)CC6)CC5)cn4)C3)ccc(Cl)c12 (single isomer, unassigned) [Example 181, N-[(3S*)-1-(4-Chloro-3-cyano-1H-indol-7-yl)piperidin-3-yl]-5-[4-({4-[2-(2,6-dioxopiperidin-3-yl)-1-oxo-2,3-dihydro-1H-isoindol-5-yl]piperazin-1-yl}methyl)piperidin-1-yl]pyridine-2-carboxamide]
20	96	60	91			COc1cc(N2CCN(CC3CCN(c4ccc(C5CCN(c6ccc(C)c7c(C#N)n[nH]c67)CC5)cc4)CC3)CC2)cc2c1C(=O)N(C1CCC(=O)NC1=O)C2 (stereo not shown) [Example 149, 7-(4-{4-[4-({4-[2-(2,6-Dioxopiperidin-3-yl)-7-methoxy-1-oxo-2,3-dihydro-1H-isoindol-5-yl]piperazin-1-yl}methyl)piperidin-1-yl]phenyl}piperidin-1-yl)-4-methyl-1H-indazole-3-carbonitrile]
24		2300		92	100	N#Cc1c[nH]c2c(N3CCOC(c4ccc(N5CCC(CN6CCC(n7ccc8c(N9CCC(=O)NC9=O)cccc87)CC6)CC5)cc4)C3)ccc(Cl)c12 (single isomer, unassigned) [Example 118, 4-Chloro-7-[(2R*)-2-{4-[4-({4-[4-(2,4-dioxo-1,3-diazinan-1-yl)-1H-indol-1-yl]piperidin-1-yl}methyl)piperidin-1-yl]phenyl}morpholin-4-yl]-1H-indole-3-carbonitrile]
